{"source": "patent US20260232834A1", "about": "“CYTOTOXICITY TARGETING CHIMERAS FOR ANTIBODY-DRUG CONJUGATES AND BISPECIFIC ANTIBODIES” (GLAXOSMITHKLINE INTELLECTUAL PROPERTY DEVELOPMENT LIMITED, priority 2023, published 2026)", "tested_on": "PSMA-expressing cells (LNCAP)", "assay": "Antibody-drug conjugate (ADC) cell killing assay, PSMA-expressing cells (CellTiter Glo)", "assay_type": "cell-based", "details": "100 nM ADC plus serial diluted PSMA targeted CyTaC (max 20 μM), 48 hours, FIG. 3", "text": "An antibody-drug conjugate (ADC) cell killing assay was developed to screen cotinine targeted ADCs in a 384-well plate format. This assay utilized (i) an anti-cotinine antibody having a heavy chain sequence of SEQ ID NO: 9 and a light chain sequence of SEQ ID NO: conjugated with Deruxtecan and (ii) a Prostate Specific Membrane Antigen (PSMA) Cytotoxicity Targeting Chimera (CyTaC) to target PSMA expressing cells for death. The structures of the ADC and PSMA targeted CyTaC used in this experiment are shown below:\nTo screen ADCs, 10,000 PSMA-expressing cells (LNCAP) or 10,000 non-expressing cells (CHO) in media (RPMI 1640 (Gibco) containing 10% fetal bovine serum (Gibco)) were transferred to a 384-well plate (Greiner Bio-One). To each well containing cells, 100 nM ADC was added. Next, serial diluted PSMA targeted CyTaC (maximum concentration of 20 μM) was added to appropriate wells. The plates were then incubated for 48 hours at 37° C. with 5% CO2. Following the 48 hour incubation, an equal volume of CellTiter Glo (Promega) was added to each well and the plates were read on a PheraStar Plate Reader (BMG) to measure cell viability via Luminescence signal. Signal: background was calculated by dividing the signal of a test well by the signal obtained when no CyTaC was added. The % cell death was calculated by: (1-(test well signal/no CyTaC signal))*100. […]", "data": [{"smiles": "CN1C(=O)C[C@H](C(=O)NCCO[C@H]2CC[C@H](OCCCC(=O)N[C@H]3CC[C@H](C(=O)N[C@@H](Cc4ccc5ccccc5c4)C(=O)NCCCC[C@H](NC(=O)N[C@@H](CCC(=O)O)C(=O)O)C(=O)O)CC3)CC2)[C@H]1c1cccnc1", "note": "[PSMA targeted CyTaC]", "values": [{"measurement": "ADC mediated cell killing (% cell death)", "result": "ADC mediated cell killing of PSMA expressing cells"}]}]}
